Results on 37 molecules are retold here after US20240287080A1 (IDEAYA Biosciences Inc., priority 2021, published 2024).

In this test the target is T1, Pol theta (1-899) (Homo sapiens, UniProt O75417).
T1 construct: Pol theta (1-899) (5 nM) in assay buffer
T1 sequence (O75417 1-899): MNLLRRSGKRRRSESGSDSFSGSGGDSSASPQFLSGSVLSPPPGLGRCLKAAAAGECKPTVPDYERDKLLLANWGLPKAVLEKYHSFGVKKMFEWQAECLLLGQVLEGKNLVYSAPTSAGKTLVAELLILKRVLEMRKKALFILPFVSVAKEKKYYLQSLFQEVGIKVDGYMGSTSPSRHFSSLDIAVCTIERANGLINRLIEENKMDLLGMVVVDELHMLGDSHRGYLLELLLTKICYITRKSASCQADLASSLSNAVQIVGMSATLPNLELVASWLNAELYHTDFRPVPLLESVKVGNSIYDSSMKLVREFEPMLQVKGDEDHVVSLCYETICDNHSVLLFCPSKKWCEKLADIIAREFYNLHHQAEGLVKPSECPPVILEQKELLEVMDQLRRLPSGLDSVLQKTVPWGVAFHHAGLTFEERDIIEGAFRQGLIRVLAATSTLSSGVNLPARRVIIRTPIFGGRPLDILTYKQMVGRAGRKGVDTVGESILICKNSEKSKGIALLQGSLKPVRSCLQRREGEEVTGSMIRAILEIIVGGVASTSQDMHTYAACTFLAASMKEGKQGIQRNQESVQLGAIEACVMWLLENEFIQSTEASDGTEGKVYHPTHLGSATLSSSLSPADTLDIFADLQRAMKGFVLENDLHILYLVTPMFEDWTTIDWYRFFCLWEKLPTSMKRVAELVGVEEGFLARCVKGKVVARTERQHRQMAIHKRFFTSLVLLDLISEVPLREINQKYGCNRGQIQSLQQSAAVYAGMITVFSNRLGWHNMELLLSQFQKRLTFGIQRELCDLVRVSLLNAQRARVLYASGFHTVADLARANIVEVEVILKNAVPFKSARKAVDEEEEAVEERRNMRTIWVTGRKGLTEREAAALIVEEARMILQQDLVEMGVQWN
Kind of test: Pol theta ATPase activity, NADH oxidation-coupled enzymatic assay (ATPase NADH coupling: Standard Screening: hPolQ). The test is classed as biochemical. The settings on record: Pol theta (1-899) 5 nM, NADH oxidation-coupled ATPase assay; compounds of Table 3. In outline:
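Rates of ATP hydrolysis taken from 60-min A340 traces of NADH oxidation via PK/LDH coupling, then fit four-parameter for IC50, Hill slope and max inhibition. Enzyme (5 nM, 1-899) and compounds preincubated 15 min before ATP 100 μM and 50-thymine ssDNA 300 nM (stock, equal volume added).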
Molecule `COc1nnc(NC(=O)c2cnc(C)cc2-c2cnc(N)c(C#N)c2)s1` [Example 362, 6-amino-5-cyano-N-(5-methoxy-1,3,4-thiadiazol-2-yl)-6′-methyl-[3,4′-bipyridine]-3′-carboxamide] came in with an IC50 of 1000 to 10000 nM.
Under `COc1nnc(NC(=O)c2cnc(C)cc2-c2ccc3ccccc3c2)s1` [Example 363, N-(5-methoxy-1,3,4-thiadiazol-2-yl)-6-methyl-4-(naphthalen-2-yl)pyridine-3-carboxamide] stands 500 to 1000 nM.
Consider `COc1nnc(NC(=O)c2cnc(C)cc2-c2cc[nH]c(=O)c2)s1` [Example 364, N-(5-methoxy-1,3,4-thiadiazol-2-yl)-6-methyl-2′-oxo-1′,2′-dihydro-[4,4′-bipyridine]-3-carboxamide], for which the IC50 was in the range of 1000 to 10000 nM.
Under `COc1nnc(NC(=O)c2cnc(C)cc2-c2ccc(C#N)cc2)s1` [Example 365, 4-(4-cyanophenyl)-N-(5-methoxy-1,3,4-thiadiazol-2-yl)-6-methylpyridine-3-carboxamide] stands 1000 to 10000 nM; under `COc1nnc(NC(=O)c2cnc(C)cc2-c2ccc(C(=O)O)cc2)s1` [Example 366, 4-(5-((5-methoxy-1,3,4-thiadiazol-2-yl)carbamoyl)-2-methylpyridin-4-yl)benzoic acid], 1000 to 10000 nM.
Under `COc1nnc(NC(=O)c2cnc(C)cc2-c2cccc3ccoc23)s1` [Example 367, 4-(1-benzofuran-7-yl)-N-(5-methoxy-1,3,4-thiadiazol-2-yl)-6-methylpyridine-3-carboxamide] stands 200 to 500 nM.
Under `COc1nnc(NC(=O)c2cnc(C)cc2-c2ccc(F)cc2)s1` [Example 368, 4-(4-fluorophenyl)-N-(5-methoxy-1,3,4-thiadiazol-2-yl)-6-methylpyridine-3-carboxamide] stands 1000 to 10000 nM; under `COc1nnc(NC(=O)c2cnc(C)cc2-c2ccc(C(=O)N(C)C)cc2)s1` [Example 369, 4-[4-(dimethylcarbamoyl)phenyl]-N-(5-methoxy-1,3,4-thiadiazol-2-yl)-6-methylpyridine-3-carboxamide], 1000 to 10000 nM.
As to `COc1nnc(NC(=O)c2cnc(C)cc2-c2ccc(-c3ccccc3)cc2)s1` [Example 370, 4-{[1,1′-biphenyl]-4-yl}-N-(5-methoxy-1,3,4-thiadiazol-2-yl)-6-methylpyridine-3-carboxamide], the IC50 fell in the range of 1000 to 10000 nM.
Under `COc1nnc(NC(=O)c2cnc(C)cc2-c2ccc(S(C)(=O)=O)cc2)s1` [Example 371, N-(5-methoxy-1,3,4-thiadiazol-2-yl)-6-methyl-4-(4-(methylsulfonyl)phenyl)nicotinamide] stands 1000 to 10000 nM; under `COc1nnc(NC(=O)c2cnc(C)cc2-c2cccc3cnccc23)s1` [Example 372, 4-(isoquinolin-5-yl)-N-(5-methoxy-1,3,4-thiadiazol-2-yl)-6-methylpyridine-3-carboxamide], 200 to 500 nM.
In the case of `COc1nnc(NC(=O)c2cnc(C)cc2-c2ccc(OC(F)(F)F)cc2)s1` [Example 376, N-(5-methoxy-1,3,4-thiadiazol-2-yl)-6-methyl-4-[4-(trifluoromethoxy)phenyl]pyridine-3-carboxamide] it was 1000 to 10000 nM.
Under `COc1ccc(-c2cc(C)ncc2C(=O)Nc2nnc(OC)s2)cc1` [Example 377, N-(5-methoxy-1,3,4-thiadiazol-2-yl)-4-(4-methoxyphenyl)-6-methylpyridine-3-carboxamide] stands 1000 to 10000 nM.
Molecule `COc1nnc(NC(=O)c2cnc(C)cc2-c2ccc(S(N)(=O)=O)cc2)s1` [Example 378, N-(5-methoxy-1,3,4-thiadiazol-2-yl)-6-methyl-4-(4-sulfamoylphenyl)pyridine-3-carboxamide] registered a half-maximal inhibitory concentration (IC50) of 1000 to 10000 nM.
Under `COc1nnc(NC(=O)c2cnc(C)cc2-c2ccc3c(c2)CNC3=O)s1` [Example 379, N-(5-methoxy-1,3,4-thiadiazol-2-yl)-6-methyl-4-(1-oxo-2,3-dihydro-1H-isoindol-5-yl)pyridine-3-carboxamide] stands 1000 to 10000 nM; under `COc1nnc(NC(=O)c2cnc(C)cc2-c2ccc3c(c2)CCO3)s1` [Example 380, 4-(2,3-dihydro-1-benzofuran-5-yl)-N-(5-methoxy-1,3,4-thiadiazol-2-yl)-6-methylpyridine-3-carboxamide], 1000 to 10000 nM.
Under `COc1nnc(NC(=O)c2cnc(C)cc2-c2ccc(C)c(C)c2)s1` [Example 381, 4-(3,4-dimethylphenyl)-N-(5-methoxy-1,3,4-thiadiazol-2-yl)-6-methylpyridine-3-carboxamide] stands 1000 to 10000 nM; under `COc1nnc(NC(=O)c2cnc(C)cc2-c2ccc(S(=O)(=O)N(C)C)cc2)s1` [Example 382, 4-[4-(dimethylsulfamoyl)phenyl]-N-(5-methoxy-1,3,4-thiadiazol-2-yl)-6-methylpyridine-3-carboxamide], 1000 to 10000 nM; under `CCc1cccc(-c2cc(C)ncc2C(=O)Nc2nnc(OC)s2)c1` [Example 383, 4-(3-ethylphenyl)-N-(5-methoxy-1,3,4-thiadiazol-2-yl)-6-methylpyridine-3-carboxamide], 500 to 1000 nM.
In the case of `CNS(=O)(=O)c1ccc(-c2cc(C)ncc2C(=O)Nc2nnc(OC)s2)cc1` [Example 384, N-(5-methoxy-1,3,4-thiadiazol-2-yl)-6-methyl-4-[4-(methylsulfamoyl)phenyl]pyridine-3-carboxamide] it was 1000 to 10000 nM; in that of `COc1nnc(NC(=O)c2cnc(C)cc2-c2cccc(S(N)(=O)=O)c2)s1` [Example 385, N-(5-methoxy-1,3,4-thiadiazol-2-yl)-6-methyl-4-(3-sulfamoylphenyl)pyridine-3-carboxamide], 1000 to 10000 nM.
`COc1nnc(NC(=O)c2cnc(C)cc2-c2ccc(C)cc2C)s1` [Example 386, 4-(2,4-dimethylphenyl)-N-(5-methoxy-1,3,4-thiadiazol-2-yl)-6-methylpyridine-3-carboxamide]: the IC50 lay in the range of 500 to 1000 nM.
The molecule `COc1nnc(NC(=O)c2cnc(C)cc2-c2ccc(NS(C)(=O)=O)cc2)s1` [Example 387, 4-(4-methanesulfonamidophenyl)-N-(5-methoxy-1,3,4-thiadiazol-2-yl)-6-methylpyridine-3-carboxamide] had an IC50 of 1000 to 10000 nM.
In the case of `COc1nnc(NC(=O)c2cnc(C)cc2-c2ccsc2)s1` [Example 388, N-(5-methoxy-1,3,4-thiadiazol-2-yl)-6-methyl-4-(thiophen-3-yl)nicotinamide] it was 1000 to 10000 nM; in that of `COc1nnc(NC(=O)c2cnc(C)cc2-c2ccccc2C)s1` [Example 389, N-(5-methoxy-1,3,4-thiadiazol-2-yl)-6-methyl-4-(2-methylphenyl)pyridine-3-carboxamide], 500 to 1000 nM.
Under `COc1nnc(NC(=O)c2cnc(C)cc2-c2ccoc2)s1` [Example 390, 4-(furan-3-yl)-N-(5-methoxy-1,3,4-thiadiazol-2-yl)-6-methylpyridine-3-carboxamide] stands 1000 to 10000 nM; under `COc1nnc(NC(=O)c2cnc(C)cc2-c2ccco2)s1` [Example 391, 4-(furan-2-yl)-N-(5-methoxy-1,3,4-thiadiazol-2-yl)-6-methylpyridine-3-carboxamide], 1000 to 10000 nM; under `COc1nnc(NC(=O)c2cnc(C)cc2-c2ccccc2C(C)C)s1` [Example 392, N-(5-methoxy-1,3,4-thiadiazol-2-yl)-6-methyl-4-[2-(propan-2-yl)phenyl]pyridine-3-carboxamide], 1000 to 10000 nM.
In the case of `COc1nnc(NC(=O)c2cnc(C)cc2-c2cnc3ccccc3c2)s1` [Example 394, N-(5-methoxy-1,3,4-thiadiazol-2-yl)-6-methyl-4-(quinolin-3-yl)pyridine-3-carboxamide] it was 1000 to 10000 nM.
As to `COc1nnc(NC(=O)c2cnc(C)cc2-c2cnn3c2CCCC3)s1` [Example 395, N-(5-methoxy-1,3,4-thiadiazol-2-yl)-6-methyl-4-{4H,5H,6H,7H-pyrazolo[1,5-a]pyridin-3-yl}pyridine-3-carboxamide], the half-inhibitory concentration (IC50) fell in the range of 1000 to 10000 nM.
`COc1nnc(NC(=O)c2cnc(C)cc2-c2cccc(S(=O)(=O)N(C)C)c2)s1` [Example 396, 4-[3-(dimethylsulfamoyl)phenyl]-N-(5-methoxy-1,3,4-thiadiazol-2-yl)-6-methylpyridine-3-carboxamide] gave an IC50 of 1000 to 10000 nM.
In the case of `COc1nnc(NC(=O)c2cnc(C)cc2-c2cccc(S(C)(=O)=O)c2)s1` [Example 397, 4-(3-methanesulfonylphenyl)-N-(5-methoxy-1,3,4-thiadiazol-2-yl)-6-methylpyridine-3-carboxamide] it was 500 to 1000 nM.
`COc1nnc(NC(=O)c2cnc(C)cc2-c2cccc3ccccc23)s1` [Example 398, N-(5-methoxy-1,3,4-thiadiazol-2-yl)-6-methyl-4-(naphthalen-1-yl)pyridine-3-carboxamide]: the IC50 was ≤ 200 nM.
In the case of `COc1nnc(NC(=O)c2cnc(C)cc2-c2cnc3[nH]ccc3c2)s1` [Example 399, N-(5-methoxy-1,3,4-thiadiazol-2-yl)-6-methyl-4-{1H-pyrrolo[2,3-b]pyridin-5-yl}pyridine-3-carboxamide] it was 1000 to 10000 nM.
Under `COc1nnc(NC(=O)c2cnc(C)cc2-c2cccc(NS(C)(=O)=O)c2)s1` [Example 400, 4-(3-methanesulfonamidophenyl)-N-(5-methoxy-1,3,4-thiadiazol-2-yl)-6-methylpyridine-3-carboxamide] stands 1000 to 10000 nM; under `CNS(=O)(=O)c1cccc(-c2cc(C)ncc2C(=O)Nc2nnc(OC)s2)c1` [Example 401, N-(5-methoxy-1,3,4-thiadiazol-2-yl)-6-methyl-4-[3-(methylsulfamoyl)phenyl]pyridine-3-carboxamide], 1000 to 10000 nM; under `CNC(=O)c1ccc(-c2cc(C)ncc2C(=O)Nc2nnc(OC)s2)cc1` [Example 402, N-(5-methoxy-1,3,4-thiadiazol-2-yl)-6-methyl-4-[4-(methylcarbamoyl)phenyl]pyridine-3-carboxamide], 1000 to 10000 nM.

As usually defined, the IC50 is the concentration that gives 50% inhibition. Low values mean inhibition by little substance, high ones a need for much substance.
